Drawing on ChEMBL document CHEMBL5096153, “Spirocyclic Scaffolds in Medicinal Chemistry” (J Med Chem, 2021), this text covers IC50 for two compounds.

The test system of the experiment is Influenza A virus. Nature of the experiment: Antiviral activity against drug-resistant Influenza A virus A/M2-V27A mutant assessed as viral growth inhibition. Type of experiment: functional, organism-based.

Regarding `NC1CC[Si]2(CCCC2)CC1`, the IC50 (commonly the point on the concentration scale where inhibition reaches its midpoint) was 96.3 µM.
Turning to `NC1CCC2(CCCC2)CC1`, the IC50 was found to be 319 µM.
